According to patent US20210115104A1, “AMYLIN ANALOGUES” (Zealand Pharma A/S, priority 2015, published 2021):
*1 amine or outer side, *2 acyl side, *3 side chain or, on linkers, in order; H or OH if unused. Where a SMILES comes first, the peptide text is derived from it. Bridges are numbered along the chain shown (N, C = ends). [ ]: non-standard residue; d: D form. The star is where a group is joined. C20 diacid = O=C(O)CCCCCCCCCCCCCCCCCCC(=O)*; γGlu = O=C(O)[C@H](CCC(=O)[*:2])N[*:1]; Hyp = O=C(O)[C@@H]1C[C@@H](O)CN1; NMeI = CC[C@H](C)[C@H](NC)C(=O)O; Sar = CNCC(=O)O

Columns and labels:
[1] = Assessment of physical stability (Thioflavin T fibrillation); format: physicochemical; set-up: key: FND = fibrillation not detected; FD = fibrillation detected; details: 1 mg/ml, 40° C., ThT; for Fibrillation pH 4.0 (Ac): 50 mM acetate buffer pH 4.0, 96 hours; for Fibrillation pH 7.0 (His): 50 mM histidine buffer pH 7.0, 96 hours; for Fibrillation pH 7.0 (Phos.): 50 mM phosphate buffer pH 7.0, 96 hours
Summary of the method: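 1 mg/ml peptide with 40 μM ThT in 50 mM phosphate pH 7.0, 50 mM histidine pH 7.0 or 50 mM acetate pH 4.0, in triplicate. Fluorescence read every 10 min after 300 s agitation over 96 h at 40 °C. Lag-time (h) is the intersection of linear fits to stable and growth phases.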

[2] = Pharmacokinetic (PK) profiling in rats; format: in vivo, rat; set-up: CI/F (apparent clearance values): unit not given here; details: Sprague Dawley male rats, single sc 30 nmol/kg
Description: Sprague Dawley male rats were given a single subcutaneous (sc) bolus of each peptide to be tested, as specified below. 30 nmol/kg doses of compound were administered. Blood samples were drawn from the tail vein prior to dosing and at 24, 48, 72, 96 and 168 hours after dosing. Blood samples were taken from two rats at each time point, and only 2 blood samples were drawn from each rat, i.e. […] were used for each compound. The rats were euthanized immediately after the last blood sampling by concussion and cervical dislocation.
The dosing vehicle used for each test peptide was a mannitol-containing histidine buffer (pH 7.0). Plasma samples were analyzed after precipitation with ethanol by liquid chromatography mass spectrometry (LC-MS/MS). Mean plasma concentrations were used for calculation of the pharmacokinetic parameters using the non-compartmental approach in Phoenix WinNonlin 6.3.
Plasma terminal elimination half-life (t1/2) was determined as ln(2)/λz, where λz is the magnitude of the slope of the log linear regression of the log concentration versus time profile during the terminal phase. Apparent clearance (CL/F) was determined as dose/AUCinf (sc), where AUCinf is the area under the plasma concentration vs. time curve extrapolated to infinity (AUCinf=AUClast+Clast/λz, where Clast is the last observed plasma concentration).

| Structure (SMILES) | Fibrillation pH 4.0 (Ac) [1] | Fibrillation pH 7.0 (His) [1] | Fibrillation pH 7.0 (Phos.) [1] | CI/F (apparent clearance values) [2] |
| --- | --- | --- | --- | --- |
| CC[C@H](C)[C@@H](C(=O)N[C@@H](CC(C)C)C(=O)N[C@@H](CO)C(=O)N[C@@H](CO)C(=O)N[C@H](C(=O)N[C@@H](CCC(=O)O)C(=O)N[C@H](C(=O)NCC(=O)N[C@@H](CO)C(=O)N[C@@H](CC(N)=O)C(=O)N[C@H](C(=O)N1C[C@H](O)C[C@H]1C(N)=O)[C@@H](C)O)C(C)C)[C@@H](C)O)N(C)C(=O)[C@H](C)NC(=O)CN(C)C(=O)[C@H](Cc1ccccc1)NC(=O)[C@H](CO)NC(=O)[C@H](CO)NC(=O)[C@H](CCCNC(=N)N)NC(=O)[C@H](CC(N)=O)NC(=O)[C@H](CC(C)C)NC(=O)[C@H](Cc1ccccc1)NC(=O)[C@H](Cc1c[nH]cn1)NC(=O)[C@H](C)NC(=O)[C@H](CC(C)C)NC(=O)[C@H](CCCNC(=N)N)NC(=O)[C@H](CCC(=O)O)NC(=O)[C@@H](NC(=O)[C@H](C)NC(=O)[C@@H]1CSSC[C@H](NC(=O)[C@H](CCCNC(=N)N)NC(=O)CC[C@H](NC(=O)CCCCCCCCCCCCCCCCCCC(=O)O)C(=O)O)C(=O)NCC(=O)N[C@@H]([C@@H](C)O)C(=O)N[C@@H](C)C(=O)N[C@@H]([C@@H](C)O)C(=O)N1)[C@@H](C)O [Compound 6, [19CD]-isoGlu-R-C( )-GTAT-C( )-ATERLAHFLNRSSF-Gly(Me)-A-Ile(Me)-LSSTEVGSNT-Hyp-NH2] ({C20 diacid-γGlu}-RCGTATCATERLAHFLNRSSF[Sar]A[NMeI]LSSTEVGSNT[Hyp]-NH2; disulfide 2-7) | FND | FND | FND | 0.0069 |
| CC[C@H](C)[C@@H](C(=O)N[C@@H](CC(C)C)C(=O)N[C@@H](CO)C(=O)N[C@@H](CO)C(=O)N[C@H](C(=O)N[C@@H](CCC(=O)O)C(=O)N[C@H](C(=O)NCC(=O)N[C@@H](CO)C(=O)N[C@@H](CC(N)=O)C(=O)N[C@H](C(=O)N1CCC[C@H]1C(N)=O)[C@@H](C)O)C(C)C)[C@@H](C)O)N(C)C(=O)[C@H](C)NC(=O)CN(C)C(=O)[C@H](Cc1ccccc1)NC(=O)[C@H](CO)NC(=O)[C@H](CO)NC(=O)[C@H](CCCNC(=N)N)NC(=O)[C@H](Cc1c[nH]cn1)NC(=O)[C@H](CC(C)C)NC(=O)[C@H](Cc1ccccc1)NC(=O)[C@H](Cc1c[nH]cn1)NC(=O)[C@H](C)NC(=O)[C@H](CC(C)C)NC(=O)[C@H](CCCNC(=N)N)NC(=O)[C@H](CCC(=O)O)NC(=O)[C@@H](NC(=O)[C@H](C)NC(=O)[C@@H]1CSSC[C@H](NC(=O)[C@H](CCCNC(=N)N)NC(=O)CC[C@H](NC(=O)CCCCCCCCCCCCCCCCCCC(=O)O)C(=O)O)C(=O)NCC(=O)N[C@@H]([C@@H](C)O)C(=O)N[C@@H](C)C(=O)N[C@@H]([C@@H](C)O)C(=O)N1)[C@@H](C)O [Compound 15, [19CD]-isoGlu-R-C( )-GTAT-C( )-ATERLAHFLHRSSF-Gly(Me)-A-Ile(Me)-LSSTEVGSNTP-NH2] ({C20 diacid-γGlu}-RCGTATCATERLAHFLHRSSF[Sar]A[NMeI]LSSTEVGSNTP-NH2; disulfide 2-7) | FND | FD | FND | 0.0116 |
| CC[C@H](C)[C@@H](C(=O)N[C@@H](CC(C)C)C(=O)N[C@@H](CO)C(=O)N[C@@H](CO)C(=O)N[C@H](C(=O)N[C@@H](CCC(=O)O)C(=O)N[C@H](C(=O)NCC(=O)N[C@@H](CO)C(=O)N[C@@H](CO)C(=O)N[C@H](C(=O)N1C[C@H](O)C[C@H]1C(N)=O)[C@@H](C)O)C(C)C)[C@@H](C)O)N(C)C(=O)[C@H](C)NC(=O)CN(C)C(=O)[C@H](Cc1ccccc1)NC(=O)[C@H](CO)NC(=O)[C@H](CO)NC(=O)[C@H](CCCNC(=N)N)NC(=O)[C@H](CCC(N)=O)NC(=O)[C@H](CC(C)C)NC(=O)[C@H](Cc1ccccc1)NC(=O)[C@H](Cc1c[nH]cn1)NC(=O)[C@H](C)NC(=O)[C@H](CC(C)C)NC(=O)[C@H](CCCNC(=N)N)NC(=O)[C@H](CCC(=O)O)NC(=O)[C@@H](NC(=O)[C@H](C)NC(=O)[C@@H]1CSSC[C@H](NC(=O)[C@H](CCCNC(=N)N)NC(=O)CC[C@H](NC(=O)CCCCCCCCCCCCCCCCCCC(=O)O)C(=O)O)C(=O)NCC(=O)N[C@@H]([C@@H](C)O)C(=O)N[C@@H](C)C(=O)N[C@@H]([C@@H](C)O)C(=O)N1)[C@@H](C)O [Compound 28, [19CD]-isoGlu-R-C( )-GTAT-C( )-ATERLAHFLQRSSF-Gly(Me)-A-Ile(Me)-LSSTEVGSST-Hyp-NH2] ({C20 diacid-γGlu}-RCGTATCATERLAHFLQRSSF[Sar]A[NMeI]LSSTEVGSST[Hyp]-NH2; disulfide 2-7) | FND | FND | FND | 0.0128 |
| CC[C@H](C)[C@@H](C(=O)N[C@@H](CC(C)C)C(=O)N[C@@H](CO)C(=O)N[C@@H](CO)C(=O)N[C@H](C(=O)N[C@@H](CCC(=O)O)C(=O)N[C@H](C(=O)NCC(=O)N[C@@H](CO)C(=O)N[C@@H](CO)C(=O)N[C@H](C(=O)N1CCC[C@H]1C(N)=O)[C@@H](C)O)C(C)C)[C@@H](C)O)N(C)C(=O)[C@H](C)NC(=O)CN(C)C(=O)[C@H](Cc1ccccc1)NC(=O)[C@H](CO)NC(=O)[C@H](CO)NC(=O)[C@H](CCCNC(=N)N)NC(=O)[C@H](CCC(N)=O)NC(=O)[C@H](CC(C)C)NC(=O)[C@H](Cc1ccccc1)NC(=O)[C@H](Cc1c[nH]cn1)NC(=O)[C@H](C)NC(=O)[C@H](CC(C)C)NC(=O)[C@H](CCCNC(=N)N)NC(=O)[C@H](CCC(=O)O)NC(=O)[C@@H](NC(=O)[C@H](C)NC(=O)[C@@H]1CSSC[C@H](NC(=O)[C@H](CCCNC(=N)N)NC(=O)CC[C@H](NC(=O)CCCCCCCCCCCCCCCCCCC(=O)O)C(=O)O)C(=O)NCC(=O)N[C@@H]([C@@H](C)O)C(=O)N[C@@H](C)C(=O)N[C@@H]([C@@H](C)O)C(=O)N1)[C@@H](C)O [Compound 34, [19CD]-isoGlu-R-C( )-GTAT-C( )-ATERLAHFLQRSSF-Gly(Me)-A-Ile(Me)-LSSTEVGSSTP-NH2] ({C20 diacid-γGlu}-RCGTATCATERLAHFLQRSSF[Sar]A[NMeI]LSSTEVGSSTP-NH2; disulfide 2-7) | FND | FND | FND | 0.0148 |
